Experimental data as given in patent US20060178318A1, “Use of aurora kinase inhibitors for reducing the resistance of cancer cells” (priority 2003, published 2006).

Key:
HeLa cells [1] = test: Taxol sensitivity assay (apoptosis, propidium iodide staining and flow cytometry); format: cell-based, human; conditions: Aurora-A-overexpressing vs mock-transfected HeLa cells, different concentrations of Taxol for 72 hr, FIG. 1
Method: 2×10^5 cells in complete growth medium were plated in a 35 mm dish before transfection using the Gene Juice transfection reagent (Novagen, United Kingdom) according to the manufacturer's protocol. GFP-expressing cells were flow sorted as before, 48 hr after transfection. Equal numbers of flow sorted mock-transfected or Aurora-A-transfected HeLa cell were plated on 6 well plates in DMEM (Life Technologies, Grand Island, N.Y.) containing 10% FBS. Taxol (Sigma Chemical Co.) at different concentrations was added fresh from a stock prepared in DMSO. The cells were exposed to the drug for 72 hr after which they were analyzed by propidium iodide staining and flow cytometry as described earlier. Cells collected at the indicated time points were centrifuged at 1000 rpm for 5 min at room temperature. 1×10^6 cells were resuspended in 0.5 ml PBS, fixed by adding 4.5 ml of ice-cold 70% ethanol, and incubated overnight in fixative at 4° C. Before analysis, fixed cells were washed in PBS and incubated with propidium iodide staining solution (0.1% Triton.X-100, PBS; 0.02 mg/ml propidium iodide; 0.2 mg/ml RnaseA) for 30 min at room temperature. […] Ten thousand events were analyzed per sample. […] The percentage of apoptotic cells was then measured using propidium iodide staining and flow cytometry to enumerate the sub G1 (<2N DNA content) population.

HeLa cells [2] = conditions: stated as known; cited from earlier work
tubulin = conditions: compared with paclitaxel; cited from earlier work

| Molecule | resistance to paclitaxel-induced apoptosis (percentage of apoptotic cells, sub G1 population) (HeLa cells [1]) | sensitivity of HeLa cells to Taxol-induced apoptosis (HeLa cells [2]) | tubulin-assembly activity relative to paclitaxel (tubulin) |
| --- | --- | --- | --- |
| CC(=O)O[C@H]1C(=O)[C@@]2(C)[C@H]([C@H](OC(=O)c3ccccc3)[C@]3(O)C[C@H](OC(=O)[C@H](O)[C@@H](NC(=O)c4ccccc4)c4ccccc4)C(C)=C1C3(C)C)[C@]1(OC(C)=O)CO[C@@H]1C[C@@H]2O [paclitaxel] | striking increase in resistance | highly sensitive | – |
| A-nor-paclitaxel | – | – | only three times less than that of paclitaxel |
